According to PubChem BioAssay AID624369 (Broad Institute, 2012):
Results filed as inconclusive are left out. The source made the active and inactive calls.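 The calls were made as follows: active = fitted curve crosses a set inhibition level at a dose up to twice the top tested dose; inconclusive = flat curve with moderate inhibition, or an unreliable curve fit; inactive = the rest, including signal rising instead of falling.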

Legend:
[1] = test system: HEK293 LMP1 TES2 NF-kB luciferase reporter, 16 h; test: TNFa-induced NF-kB reporter signal decrease – HEK293 LMP1 reporter cells, dry powder, set 2, selectivity assay for EBV LMP1 NF-kB inhibitor project, dose response (AID 624369)
[2] = as above; settings: HEK293 LMP1 TES2 NF-kB luciferase reporter, 16 h

O=C(C[C@@H]1C[C@H]2c3cc(NS(=O)(=O)c4ccc(F)cc4)ccc3O[C@H]2[C@@H](CO)O1)NCc1ccc(Oc2ccccc2)cc1
AC35 [1]: 19.5 µM

COc1ccccc1C#Cc1ccc([C@H]2[C@H](C#N)N(C(=O)C3CC3)[C@H]2CO)cc1
AC35 [1]: 27 µM

CN(C)C(=O)c1ccc(-c2cccc(-c3nc(C(=O)NCc4ccccc4)cc4c3[C@@H](CCO)N([S@](=O)C(C)(C)C)C4)c2)cc1
AC35 [1]: 10.7 µM

N#C[C@@H]1[C@H](c2ccc(C#Cc3ccccc3F)cc2)[C@@H](CO)N1C(=O)c1cccnc1
AC35 [1]: 2.04 µM

O=C(C[C@@H]1C[C@@H]2c3cc(NS(=O)(=O)c4ccc(F)cc4)ccc3O[C@@H]2[C@@H](CO)O1)NCc1ccc(Oc2ccccc2)cc1
AC35 [1]: 16.7 µM

O=C(C[C@@H]1CC[C@@H]2[C@H](COC[C@@H](O)CN2Cc2ccc(Oc3ccccc3)cc2)O1)N1CCc2ccccc2C1
AC35 [1]: 8.89 µM

C[C@@H](NC(=O)C[C@H]1C[C@@H]2c3cc(NC(=O)c4cccnc4)ccc3O[C@@H]2[C@@H](CO)O1)c1ccccc1
AC35 [1]: > 35 µM (inactive)

CN1C(=O)c2cc(NC(=O)Cc3cccs3)ccc2OC[C@@H]2O[C@H](CC(=O)NCc3ccc(-c4ccccc4)cc3)CC[C@H]21
AC35 [1]: 33.6 µM

CC(C)(C)[S@@](=O)N1Cc2cc(C(=O)NCc3ccccc3F)nc(-c3cccc(-c4ccncc4)c3)c2[C@H]1CCO
AC35 [1]: 9.63 µM

CC(=O)N(C)C[C@@H]1Oc2cc(C#Cc3ccc(F)cc3)ccc2S(=O)(=O)N([C@H](C)CO)C[C@H]1C
AC35 [1]: 34 µM

CN(C)C(=O)c1cccc(-c2cccc(-c3nc(C(=O)NCc4ccccc4)cc4c3[C@@H](CCO)N([S@](=O)C(C)(C)C)C4)c2)c1
AC35 [1]: 10.3 µM

N#C[C@H]1[C@H](c2ccc(C#Cc3ccccc3F)cc2)[C@H](CO)N1C(=O)c1cccnc1
AC35 [1]: 31.3 µM

O=C(C[C@@H]1CC[C@@H]2[C@H](COC[C@@H](O)CN2Cc2ccc3c(c2)OCO3)O1)Nc1ccc(-c2ccccc2)cc1
AC35 [1]: 11.2 µM

O=C(C[C@@H]1CC[C@@H]2[C@H](COC[C@H](O)CN2Cc2ccc3c(c2)OCO3)O1)Nc1ccc(-c2ccccc2)cc1
AC35 [1]: 10.7 µM

COc1cccc(-c2cccc(-c3nc(C(=O)NCC(F)(F)F)cc4c3[C@H](CCO)N([S@@](=O)C(C)(C)C)C4)c2)c1
AC35 [1]: 5.24 µM

Cc1ccc(S(=O)(=O)N(C)C[C@H]2Oc3cc(C#Cc4ccncc4)ccc3S(=O)(=O)N([C@@H](C)CO)C[C@H]2C)cc1
AC35 [1]: 16.4 µM

CC(C)(C)[S@@](=O)N1Cc2cc(C(=O)NCc3ccccc3F)nc(-c3cccc(-c4cccnc4)c3)c2[C@H]1CCO
AC35 [1]: 12.7 µM

Cc1cc(C(=O)Nc2ccc3c(c2)C(=O)N(C)[C@@H]2CC[C@@H](CC(=O)NCc4ccc(-c5ccccc5)cc4)O[C@H]2CO3)no1
AC35 [1]: 12.4 µM

CC(C)(C)[S@@](=O)N1Cc2cc(C(=O)NCc3ccccn3)nc(-c3cccc(-c4ccccc4F)c3)c2[C@H]1CCO
AC35 [1]: 26.1 µM

CC(C)(C)[S@@](=O)N1Cc2cc(C(=O)NCCc3ccncc3)nc(-c3cccc(-c4cccnc4)c3)c2[C@H]1CCO
AC35 [1]: 17.7 µM

COc1ccccc1C#Cc1cnc2c(c1)C(=O)N([C@@H](C)CO)C[C@H](C)[C@@H](CN(C)C(=O)c1ccc3c(c1)OCO3)O2
AC35 [1]: 27.9 µM

Cc1ccc(S(=O)(=O)N(C)C[C@H]2Oc3cc(C#Cc4ccncc4)ccc3S(=O)(=O)N([C@@H](C)CO)C[C@@H]2C)cc1
AC35 [1]: 10.2 µM

Cc1cc(C(=O)Nc2ccc3c(c2)C(=O)N(C)[C@H]2CC[C@@H](CC(=O)NCc4ccc(-c5ccccc5)cc4)O[C@H]2CO3)no1
AC35 [1]: 13.5 µM

O=C(C[C@H]1C[C@H]2c3cc(NC(=O)c4ccc5c(c4)OCO5)ccc3O[C@H]2[C@H](CO)O1)NCc1ccc(Oc2ccccc2)cc1
AC35 [1]: 30 µM

COc1ccc(CNC(=O)c2cc3c(c(-c4cccc(-c5ccc(C#N)cc5)c4)n2)[C@@H](CCO)N([S@](=O)C(C)(C)C)C3)cc1
AC35 [1]: 19.5 µM

COc1ccccc1C#Cc1cnc2c(c1)C(=O)N([C@H](C)CO)C[C@H](C)[C@@H](CN(C)C(=O)c1ccc3c(c1)OCO3)O2
AC35 [1]: 34.3 µM

N#C[C@H]1[C@H](c2ccc(C#Cc3ccccc3F)cc2)[C@@H](CO)N1C(=O)c1cccnc1
AC35 [1]: 20.1 µM

CN1C(=O)c2cc(NC(=O)c3ccc(C(F)(F)F)cc3)ccc2OC[C@@H]2O[C@@H](CC(=O)NC3Cc4ccccc4C3)CC[C@H]21
AC35 [1]: 25.7 µM

C[C@H]1CN([C@@H](C)CO)C(=O)Cc2cc(NC(=O)Cc3ccccc3)ccc2O[C@@H]1CN(C)Cc1ccc(C(F)(F)F)cc1
activity change, negative = inhibition ([2]; at 35 µM (top of the series)): 13.6% (inactive)

O=C(C[C@H]1C[C@@H]2c3cc(NS(=O)(=O)c4ccc(F)cc4)ccc3O[C@@H]2[C@@H](CO)O1)NCc1ccc(Oc2ccccc2)cc1
AC35 [1]: 16.7 µM

Cc1noc(C)c1S(=O)(=O)Nc1ccc2c(c1)C(=O)N([C@@H](C)CO)C[C@H](C)[C@@H](CN(C)Cc1ccc(C(F)(F)F)cc1)OCCCC[C@@H](C)O2
activity change, negative = inhibition ([2]; at 35 µM (top of the series)): -1.88% (inactive)

C[C@@H](NC(=O)C[C@H]1C=C[C@H](NC(=O)Cc2ccccn2)[C@@H](CO)O1)c1ccccc1
activity change, negative = inhibition ([2]; at 35 µM (top of the series)): 0.235% (inactive)

COc1ccc(NC(=O)N(C)C[C@@H]2Oc3cc(C#CCC(C)C)ccc3S(=O)(=O)N([C@@H](C)CO)C[C@@H]2C)cc1
activity change, negative = inhibition ([2]; at 35 µM (top of the series)): 14.6% (inactive)

C[C@H](NC(=O)C[C@H]1C=C[C@H](NC(=O)Cc2ccccn2)[C@@H](CO)O1)c1ccccc1
activity change, negative = inhibition ([2]; at 35 µM (top of the series)): -2.25% (inactive)

C[C@H]1CN([C@@H](C)CO)S(=O)(=O)c2ccc(C#Cc3ccncc3)cc2O[C@H]1CN(C)C(=O)Nc1ccc2c(c1)OCO2
AC35 [1]: 15.3 µM

N#C[C@H]1N[C@H](CO)[C@H]1c1ccc(C#Cc2ccccc2F)cc1
AC35 [1]: < 0.26 µM

COc1ccc(S(=O)(=O)N(C)C[C@H]2Oc3ncc(/C=C/c4ccccc4)cc3C(=O)N([C@H](C)CO)C[C@@H]2C)cc1
AC35 [1]: 21.9 µM

C[C@H](NC(=O)C[C@@H]1C=C[C@@H](NC(=O)Cc2ccccn2)[C@@H](CO)O1)c1ccccc1
activity change, negative = inhibition ([2]; at 35 µM (top of the series)): -1.02% (inactive)

COc1cccc(C#Cc2ccc([C@@H]3[C@H](C#N)N(C(=O)c4ccccn4)[C@H]3CO)cc2)c1
activity change, negative = inhibition ([2]; at 35 µM (top of the series)): -1.9% (inactive)

CN(C)c1ccc2c(c1)[C@@H]1C[C@H](CC(=O)NCc3ccc(Oc4ccccc4)cc3)O[C@@H](CO)[C@@H]1O2
AC35 [1]: 21.7 µM

CC(C)(C)[S@](=O)N1Cc2cc(C(=O)NCC(F)(F)F)nc(-c3cccc(-c4cccc(F)c4)c3)c2[C@@H]1CCO
AC35 [1]: 8.65 µM

CC(C)NC(=O)N1Cc2cc(C(=O)NC3Cc4ccccc4C3)nc(-c3cccc(-c4cccnc4)c3)c2[C@@H]1CCO
AC35 [1]: 18.5 µM

CN(C)c1ccc2c(c1)[C@@H]1C[C@@H](CC(=O)NCc3ccc(Oc4ccccc4)cc3)O[C@H](CO)[C@@H]1O2
AC35 [1]: 10.3 µM

N#C[C@H]1[C@@H](c2ccc(-c3cccnc3)cc2)[C@@H](CO)N1C(=O)Nc1ccc(F)cc1
AC35 [1]: 16.9 µM

Cc1noc(C)c1S(=O)(=O)Nc1ccc2c(c1)C(=O)N([C@@H](C)CO)C[C@H](C)[C@H](CN(C)Cc1ccc(C(F)(F)F)cc1)OCCCC[C@@H](C)O2
activity change, negative = inhibition ([2]; at 30 µM (top of the series)): 83.8% (inactive)

COc1ccc(-c2cccc(-c3nc(C(=O)NCC(F)(F)F)cc4c3[C@H](CCO)N([S@@](=O)C(C)(C)C)C4)c2)cc1
AC35 [1]: 28 µM

CO[C@H](CN(C)S(=O)(=O)c1cccc(Cl)c1)[C@@H](C)CN([C@H](C)CO)S(=O)(=O)c1ccc(Cl)cc1
activity change, negative = inhibition ([2]; at 35 µM (top of the series)): -1.32% (inactive)

O=C(C[C@@H]1C[C@H]2c3cc(NS(=O)(=O)c4ccc(F)cc4)ccc3O[C@H]2[C@@H](CO)O1)NC1CCCCC1
activity change, negative = inhibition ([2]; at 35 µM (top of the series)): -3.73% (inactive)

CC(C)NC(=O)N1Cc2cc(C(=O)NC3Cc4ccccc4C3)nc(-c3cccc(-c4cccnc4)c3)c2[C@H]1CCO
AC35 [1]: 29.1 µM

O=C(Cc1ccccn1)NCC[C@H]1CC[C@@H](NC(=O)Nc2ccc(Cl)cc2)[C@H](CO)O1
activity change, negative = inhibition ([2]; at 35 µM (top of the series)): -8.81% (inactive)

C[C@@H](NC(=O)C[C@H]1C=C[C@@H](NC(=O)Cc2ccccn2)[C@@H](CO)O1)c1ccccc1
activity change, negative = inhibition ([2]; at 35 µM (top of the series)): -2.43% (inactive)

O=C(C[C@H]1C[C@H]2c3cc(NS(=O)(=O)c4ccc(F)cc4)ccc3O[C@H]2[C@H](CO)O1)NCc1ccc(Oc2ccccc2)cc1
AC35 [1]: 9.13 µM

COc1ccccc1C#Cc1ccc2c(c1)O[C@H](CN(C)Cc1cccnc1)[C@@H](C)CN([C@@H](C)CO)S2(=O)=O
AC35 [1]: 26.6 µM

C[C@H](NC(=O)C[C@H]1C=C[C@H](NC(=O)Cc2ccccn2)[C@H](CO)O1)c1ccccc1
activity change, negative = inhibition ([2]; at 35 µM (top of the series)): 3.06% (inactive)

C[C@H](NC(=O)C[C@H]1C=C[C@@H](NC(=O)Cc2ccccn2)[C@H](CO)O1)c1ccccc1
activity change, negative = inhibition ([2]; at 35 µM (top of the series)): -0.458% (inactive)

C[C@@H]1CN([C@@H](C)CO)C(=O)Cc2cc(NC(=O)Cc3ccccc3)ccc2O[C@@H]1CN(C)Cc1ccc(C(F)(F)F)cc1
activity change, negative = inhibition ([2]; at 35 µM (top of the series)): 26.6% (inactive)

COc1cccc(S(=O)(=O)N(C)C[C@@H]2Oc3cc(C4=CCCCC4)ccc3S(=O)(=O)N([C@@H](C)CO)C[C@@H]2C)c1
activity change, negative = inhibition ([2]; at 35 µM (top of the series)): 17.7% (inactive)

C[C@@H]1CN([C@@H](C)CO)C(=O)c2c(c3ccccc3n2C)-c2ccccc2CO[C@@H]1CN(C)C(=O)Nc1ccc(F)cc1
activity change, negative = inhibition ([2]; at 35 µM (top of the series)): 3.56% (inactive)

COc1ccccc1CNC(=O)C[C@H]1C[C@@H]2c3cc(NC(=O)CN(C)C)ccc3O[C@@H]2[C@@H](CO)O1
activity change, negative = inhibition ([2]; at 35 µM (top of the series)): -0.186% (inactive)

O=C(C[C@@H]1C[C@@H]2c3cc(NC(=O)c4ccc5c(c4)OCO5)ccc3O[C@@H]2[C@@H](CO)O1)NCc1ccc(Oc2ccccc2)cc1
AC35 [1]: 14.2 µM

Cc1noc(C)c1S(=O)(=O)Nc1ccc2c(c1)C(=O)N([C@@H](C)CO)C[C@@H](C)[C@@H](CN(C)Cc1ccc(C(F)(F)F)cc1)OCCCC[C@@H](C)O2
activity change, negative = inhibition ([2]; at 35 µM (top of the series)): 30.6% (inactive)

COc1ccccc1C#Cc1ccc2c(c1)O[C@H](CN(C)Cc1cccnc1)[C@H](C)CN([C@H](C)CO)S2(=O)=O
AC35 [1]: 20.7 µM

O=C(C[C@H]1C[C@@H]2c3cc(NC(=O)c4ccc5c(c4)OCO5)ccc3O[C@@H]2[C@@H](CO)O1)NCc1ccc(Oc2ccccc2)cc1
AC35 [1]: 24.6 µM

C[C@@H]1CN([C@@H](C)CO)S(=O)(=O)c2ccc(C#Cc3ccncc3)cc2O[C@H]1CN(C)C(=O)Nc1ccc2c(c1)OCO2
AC35 [1]: 21.4 µM

Cc1cc(C(=O)Nc2ccc3c(c2)C(=O)N(C)[C@@H]2CC[C@H](CC(=O)NCc4ccc(-c5ccccc5)cc4)O[C@@H]2CO3)no1
AC35 [1]: 6.74 µM
